Patent publication US20060123501A1, “Method for treating inflammatory disorders” (priority 2004, published 2006)
Read-outs that look alike come from different tables or passages of the source.

Tests used:
[1] = test system: cIAP2−/− mice and littermate controls; details: for LD100: i.p.
Method: Mice were injected IP with a range of indicated LPS doses (n=15).
Schoemaker et al. proposed an important role of cIAP2 in LPS-induced death of liver cells sensitized to endotoxic shock by D-galactosamine (DGLN) (22). […] Thus to investigate the role of cIAP2 in an innate immune response, the cIAP2^−/− mice were treated with LPS.
Adult 4-6 week old mice (n=6 to 10) were injected intraperitoneally (i.p.) with a range of LPS doses (10 to 200 mg LPSD/kg) from E. coli (Sigma) in a total volume of 0.2 ml nonpyrogenic saline.

[2] = test system: liver-derived macrophages; assay: Liver-derived macrophage cell counts in liver sections after i.p. LPS; type: in vivo, mouse
Method: Liver tissue derived from cIAP2^−/− (upper panels) and cIAP2^+/+ mice (lower panels) pre-treated with LPS (35 mg/kg) for 2 hours (a) or 6 hours (b). cell counts (n=5, average of 3 sections (average of 5 fields per section) per mouse, P<0.01) are shown within each anti-F4/80 FITC conjugated antibody stained panel along with the standard deviation.
To determine the apoptotic sensitivity of cIAP2^−/− macrophages within an LPS-induced pro-inflammatory environment, the peritoneal macrophage cell numbers before and during an endotoxin-elicited response were assessed by trypan blue exclusion, Diff Quik™ staining kit and flow cytometry (using the macrophage marker PE conjugated α-F4/80 antibody). […] However, total lymphocyte cell count numbers (B and T cells) were comparatively unaffected in both animal types (FIG. 5D). In addition, at 5 hours post LPS injection both the peritoneal and splenic macrophages from cIAP2^−/− mice stained ˜100% positive for Annexin V (Table 5). Therefore, peritoneal and splenic macrophages from cIAP2^−/− mice undergoing LPS-induced endotoxic shock were highly sensitive to apoptotic stimuli compared to control littermates, in vivo. Liver-derived macrophages are key mediators of LPS-induced endotoxic shock (7, 12). Therefore, to further investigate the survival status of macrophages within LPS treated cIAP2^−/− mice we examined cell count levels of liver-derived macrophages within liver sections. Macrophage cell count numbers within both cIAP2^−/− and control mice were similar at 2 hours post-IP LPS treatment (FIG. 6A), 235+/−35 and 271+/−29, respectively (n=5, average of 3 sections (average of 5 fields per section) per mouse, P<0.01). However, at the 6 hour time point (FIG. 6B), there was a precipitous drop of liver-derived macrophages of the cIAP2^−/− mice, 21+/−12 versus that of the littermates, 148+/−19 (n=5, average of 3 sections (average of 5 fields per section) per mouse, P<0.01). Therefore, like peritoneal and splenic macrophages, the liver-derived macrophages from cIAP2^−/− are highly sensitive to LPS in vivo.

[3] = test system: xiap, ciap1 and ciap2 mRNA; assay: iap mRNA levels of LPS-treated peritoneal macrophages (quantitative RT-PCR); type: cell-based, mouse
Method: The iap mRNA levels of LPS-treated peritoneal macrophages derived from wild type C57Bl/6 mice relative to untreated controls were assayed. (A) xiap, ciap1, and ciap2 message levels of macrophages exposed to a range of LPS doses relative to untreated controls. (B) ciap2 mRNA message of macrophages exposed to LPS was assayed over 24 h. Results are mean±s.d. (n=5, average of triplicate wells per mouse, P<0.05).
LPS-induced activation of macrophages causes the upregulation of a multitude of genes, including the production/release of inflammatory mediators, the upregulation of cell surface receptors and of cell survival proteins. […] Therefore, the iap mRNA levels of LPS-treated macrophages, derived from the peritoneal cavity, were assayed relative to untreated controls. Peritoneal macrophages were cultured at 10^5 cell/well (96 well, flat bottom plate) and exposed to varying concentrations of LPS for 18 hours. […] In contrast, ciap2 levels increased dramatically, up to 30 fold above untreated controls (P<0.01 for all LPS doses) (FIG. 2A). The innate immune system provides protection within the first minutes to hours after a pathogenic challenge.
mRNA was extracted from mouse embryonic fibroblasts or peritoneal macrophages using Qiagen Rneasy 96 wells extraction kit (Qiagen, Mississauga, ON, Canada) and run on a TaqMan® instrument (Perkin-Elmer, Foster City, Calif.) using specific DNA probes for murine xiap, ciap1 and 2 and the TaqMan® EZ RT-PCR kit (Qiagen, Mississauga, ON, Canada).

[4] = test system: peritoneal-derived macrophages; assay: Fas-induced death of peritoneal macrophages with or without LPS pre-treatment (TUNEL); type: cell-based, mouse; details: LPS 10 μg/ml, 4 h, α-Fas antibody 20 μg/ml
Method: Peritoneal-derived macrophages from cIAP2^−/− (lower panels) and cIAP2^+/+ mice (upper panels) were either pre-treated with LPS for 4 h or not pre-treated prior to exposure to α-Fas antibody and then TUNEL stained to assess cell viability (A). Percentages of viable cells (n=5, average of triplicate wells per mouse, P values were <0.01) are shown within each TUNEL stained panel along with the standard deviation. cIAP2^−/−-derived (open shapes) and cIAP2^+/+-derived (solid shapes) T cells were pre-incubated with a range of IL-7 concentrations and then exposed to dexamethasone and T cell survival was monitored over a 12 h period (B) (n=3, average of triplicate wells per mouse, results are mean±s.d., P values at the 12 h point were <0.05). Peritoneal-derived cell numbers are shown for macrophages of cIAP2^−/− mice and littermate control cIAP2^+/+ mice injected i.p. with LPS(C). […]
Confluent primary cultures of peritoneal-derived macrophages were either pre-treated with LPS (10 μg/ml, 4 h) or not pre-treated prior to exposure to α-Fas antibody (20 μg/ml, clone Jo2) and then TUNEL stained (Roche) to assess cell viability. Primary cultures of spleen derived T cells were pre-incubated with a range of IL-7 concentrations (0, 5, and 10 ng/ml) and then exposed to dexamethasone (100 nM) and T cell survival was monitored over a 12 h period.

[5] = wild type peritoneal macrophages, LPS 0.1 ng/ml to 10 mg/ml, 18 hours

lipopolysaccharide [LPS] was tested, and the Survival ([1]; all littermate controls, LPS dose of 60 mg/kg and above) was “did not survive past the first day”, the Survival time ([1]; cIAP2−/− mice, LPS dose of 200 mg LPS/kg) was 2 to 7 days and the LD100 ([1]; cIAP2−/− mice) was 100 mg LPS/kg. For the same substance, the “Time within which all died” value ([1]; control littermates, 40 mg LPS/kg) was no more than 24 h, the LD100 ([1]; control littermates) was 35 mg LPS/kg and the “LD100 of cIAP2−/− mice compared to that of control littermates” value ([1]; i.p. LPS) was “approximately 3 ×”. The “Liver macrophage cell count” value ([2]; cIAP2−/− mice, 2 hours post-IP LPS (35 mg/kg)) was 235+/−35, the “Liver macrophage cell count” value ([2]; cIAP2−/− mice, 6 hour time point post LPS (35 mg/kg)) was 21+/−12 and the “Liver macrophage cell count” value ([2]; control mice, 2 hours post-IP LPS (35 mg/kg)) was 271+/−29. The “Liver macrophage cell count” value ([2]; littermates, 6 hour time point post LPS (35 mg/kg)) was 148+/−19, the “ciap2 mRNA upregulation above untreated controls” value ([3]; 100 ng/1 ml LPS, within 1 hour, maintained for 24 hours) was greater than 20 fold and the “increase of ciap2 message above untreated controls” value ([3]; peritoneal-derived macrophages, in less than one hour) was 2o. The “Xiap and ciap1 message levels” value [3, 5] was “remained relatively unchanged”, the “ciap2 mRNA level increase above untreated controls” value [3, 5] was “up to 30 fold” and the “Resistance to Fas-mediated killing with or without pre-exposure to LPS” value ([4]; cIAP2−/− macrophages) was “displayed no difference”. The “Resistance to Fas-induced death after LPS pre-treatment” value ([4]; wild-type macrophages) was “showed the expected resistance to Fas-induced death”.
